Results reported in patent publication US20180057505A1, “BICYCLIC HETEROARYL COMPOUNDS USEFUL AS INHIBITORS OF THE PAR-2 SIGNALING PATHWAY” (VERTEX PHARMACEUTICALS INCORPORATED, priority 2015, published 2018).

Assays:
Assay type in all cases: cell-based
PAR2 (HT-29 cells) [1] = target: T1, PAR2 (HT-29 cells) (Homo sapiens, UniProt P55085); assay: Ca FLIPR TETRA assay, ANTAGONIST mode, activator 8 μM SLIGKV; conditions: HT-29 cells, activator 8 μM SLIGKV
T1 construct: host or cells: HT-29
T1 sequence (P55085 26-397): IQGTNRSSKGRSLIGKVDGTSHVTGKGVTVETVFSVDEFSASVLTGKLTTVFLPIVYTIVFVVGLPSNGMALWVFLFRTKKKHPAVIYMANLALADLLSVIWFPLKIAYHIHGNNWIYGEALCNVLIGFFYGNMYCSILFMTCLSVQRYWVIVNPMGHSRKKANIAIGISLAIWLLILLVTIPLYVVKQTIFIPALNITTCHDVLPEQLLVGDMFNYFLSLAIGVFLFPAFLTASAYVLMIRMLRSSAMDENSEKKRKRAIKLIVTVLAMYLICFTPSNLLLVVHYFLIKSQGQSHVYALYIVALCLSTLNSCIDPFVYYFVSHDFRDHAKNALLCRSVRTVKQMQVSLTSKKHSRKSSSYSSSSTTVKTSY
How it was run: (§1)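 Antagonist-mode FLIPR Tetra Ca2+ read: dye-loaded HT-29 cells preincubated 30 min at r.t. with compound (first read checks agonism alone), then challenged with final 3.1 U/mL trypsin, 8 μM SLIGKV, 1 U/mL thrombin or 0.6 μM UTP. Cells plated overnight in 1% FBS McCoy's; Calcium 5 loading 45 min 37 °C plus 15 min r.t.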

PAR2 (HT-29 cells) [2] = target: T1, PAR2 (HT-29 cells); assay: Ca FLIPR TETRA assay, ANTAGONIST mode, activator 3.1 U/mL trypsin; conditions: HT-29 cells, activator 3.1 U/mL trypsin
How it was run: as §1

[3] = tested on: Thrombin-stimulated Ca2+ response in HT-29 cells; assay: Ca FLIPR TETRA assay, ANTAGONIST mode, activator 1 U/mL Thrombin; conditions: HT-29 cells, activator 1 U/mL Thrombin
How it was run: as §1

[4] = tested on: UTP-stimulated Ca2+ response in HT-29 cells; assay: Ca FLIPR TETRA assay, ANTAGONIST mode, activator 0.6 μM UTP; conditions: for IC50: HT-29 cells, activator 0.6 μM UTP; for inhibition at 50 µM: HT-29
How it was run: as §1

[5] = maximal antagonist concentration per Method (A: 0.1, 1 or 2 μM; B: 50 μM)
[6] = Method A: maximal concentration of antagonist 0.1, 1 or 2 μM

For `CC1(c2cc(-c3ccc(F)cc3)nc3cc(C(=O)N4CCN(C(=O)C5CCCCC5)CC4(C)C)oc23)CC1` [Example I-42], the IC50 (PAR2 (HT-29 cells) [1]; [5]) was 1.2 nM, the IC50 (PAR2 (HT-29 cells) [2]; [5]) was 1.2 nM and the IC50 ([3]; Homo sapiens) was > 50000 nM. For the same compound, the IC50 ([4]; Homo sapiens) was > 50000 nM.
`CC(C)(C)c1cc(-c2ccc(Cl)c(F)c2)nc2cc(C(=O)N3CCN(C(=O)[C@@H]4CCS(=O)(=O)N4)CC3(C)C)oc12` [Example I-472] was tested, and the IC50 (PAR2 (HT-29 cells) [1]; [6]) was 33.9 nM, the IC50 (PAR2 (HT-29 cells) [2]; [6]) was 20 nM and the IC50 ([3]; Homo sapiens) was > 2000 nM. For the same compound, the IC50 ([4]; Homo sapiens) was > 2000 nM.
`CC(C)(C)c1cc(-c2ccc(Cl)c(F)c2)nc2cc(C(=O)N3CCN(c4ccncc4C(=O)O)CC3(C)C)oc12` [Example I-491] was tested, and the IC50 (PAR2 (HT-29 cells) [1]; [6]) was 190 nM, the IC50 (PAR2 (HT-29 cells) [2]; [6]) was 230 nM and the IC50 ([3]; Homo sapiens) was > 2000 nM. The IC50 ([4]; Homo sapiens) was > 2000 nM.
For `Cc1ccc(N2CCN(C(=O)c3cc4nc(-c5ccc(Cl)cc5)cc(C(C)(C)C)c4o3)C(C)(C)C2)nn1` [Example I-263], the IC50 (PAR2 (HT-29 cells) [1]; [5]) was 2.6 nM, the IC50 (PAR2 (HT-29 cells) [2]; [5]) was 3.9 nM and the IC50 ([3]; Homo sapiens) was > 2000 nM. For the same compound, the IC50 ([4]; Homo sapiens) was > 2000 nM.
With `Cc1nc(N2CCN(C(=O)c3cc4nc(-c5ccc(Cl)cc5)cc(C(C)(C)C)c4o3)C(C)(C)C2)ncc1C(=O)O` [Example I-410] the IC50 (PAR2 (HT-29 cells) [1]; [6]) was 0.6 nM, the IC50 (PAR2 (HT-29 cells) [2]; [6]) was 0.9 nM and the IC50 [3] was > 1010 nM. The IC50 [4] was > 1010 nM.
`CC(C)(C)c1cc(-c2ccc(Cl)cc2)nc2cc(C(=O)N3CCN(c4cncc(C(=O)O)c4)CC3(C)C)oc12` [Example I-477] was tested, and the IC50 (PAR2 (HT-29 cells) [1]; [6]) was 0.7 nM, the IC50 (PAR2 (HT-29 cells) [2]; [6]) was 1.8 nM and the IC50 ([3]; Homo sapiens) was > 500 nM. The IC50 ([4]; Homo sapiens) was > 500 nM.
With `CC(C)(C)c1cc(-c2ccc(Cl)cc2)nc2cc(C(=O)N3CCN(c4ccnc(C(=O)O)n4)CC3(C)C)oc12` [Example I-415] the IC50 (PAR2 (HT-29 cells) [1]; [6]) was 19 nM, the IC50 (PAR2 (HT-29 cells) [2]; [6]) was 19 nM and the IC50 ([3]; Homo sapiens) was > 2000 nM. The IC50 ([4]; Homo sapiens) was > 2000 nM.
In the case of `CC(C)c1cc(-c2ccc(F)cc2)nc2cc(C(=O)N3CCN(C(=O)c4ccccc4)CC3(C)C)oc12` [Example I-11], the IC50 (PAR2 (HT-29 cells) [1]; [5]) is reported as 2.4 nM, the IC50 (PAR2 (HT-29 cells) [2]; [5]) is reported as 3.5 nM and the IC50 ([3]; Homo sapiens) is reported as 1400 nM. The inhibition at 50 µM ([4]; Homo sapiens) was 59%.
For `C[C@H]1CN(C(=O)c2cc3nc(-c4ccc(F)cc4)cc(C4(C)CC4)c3o2)CCN1C(=O)C1CCC1` [Example I-115], the IC50 (PAR2 (HT-29 cells) [1]; [5]) was 46 nM, the IC50 (PAR2 (HT-29 cells) [2]; [5]) was 92 nM and the IC50 ([3]; Homo sapiens) was > 50000 nM. The inhibition at 50 µM ([4]; Homo sapiens) was 66%.
`CC(C)(C)c1cc(C2CCC(F)(F)CC2)nc2cc(C(=O)N3CCN(C(=O)CCS(C)(=O)=O)CC3(C)C)oc12` [Example I-232] was tested, and the IC50 (PAR2 (HT-29 cells) [1]; [5]) was 215 nM, the IC50 (PAR2 (HT-29 cells) [2]; [5]) was 200 nM and the IC50 ([3]; Homo sapiens) was > 2000 nM. The IC50 ([4]; Homo sapiens) was > 2000 nM.
In the case of `CC(C)(C)c1cc(-c2ccc(Cl)c(F)c2)nc2cc(C(=O)N3CCN(c4cncc(C(=O)O)n4)CC3(C)C)oc12` [Example I-469], the IC50 (PAR2 (HT-29 cells) [1]; [6]) is reported as 0.3 nM, the IC50 (PAR2 (HT-29 cells) [2]; [6]) is reported as 0.6 nM and the IC50 ([3]; Homo sapiens) is reported as > 2000 nM. For the same compound, the IC50 ([4]; Homo sapiens) was > 2000 nM.
With `CC(C)(C)c1cc(-c2ccc(Cl)cc2)nc2cc(C(=O)N3CCNC(=O)C3(C)C)oc12` [Example I-153, 4-[7-tert-butyl-5-(4-chlorophenyl)furo[3,2-b]pyridine-2-carbonyl]-3,3-dimethyl-piperazin-2-one] the IC50 (PAR2 (HT-29 cells) [1]; [5]) was 4.9 nM, the IC50 (PAR2 (HT-29 cells) [2]; [5]) was 3 nM and the IC50 ([3]; Homo sapiens) was > 1000 nM. The IC50 ([4]; Homo sapiens) was > 1000 nM.
In the case of `CC(C)(C)c1cc(-c2ccc(Cl)cc2)nc2cc(C(=O)N3CCN(C(=O)CC4(C(=O)O)CCCC4)CC3(C)C)oc12` [Example I-493], the IC50 (PAR2 (HT-29 cells) [1]; [6]) is reported as 0.4 nM, the IC50 (PAR2 (HT-29 cells) [2]; [6]) is reported as 0.4 nM and the IC50 ([3]; Homo sapiens) is reported as > 2000 nM. The IC50 ([4]; Homo sapiens) was > 2000 nM.
`Cc1nc(N2CCN(C(=O)c3cc4nc(-c5ccc(Cl)c(F)c5)cc(C(C)(C)C)c4o3)C(C)(C)C2)ncc1C(=O)O` [Example I-466] showed an IC50 (PAR2 (HT-29 cells) [1]; [6]) of 0.2 nM, an IC50 (PAR2 (HT-29 cells) [2]; [6]) of 0.4 nM and an IC50 ([3]; Homo sapiens) of 1150 nM. It also gave an IC50 ([4]; Homo sapiens) of 995 nM.
With `Cc1ccc(N2CCN(C(=O)c3cc4nc(C5CCC(C)(C)CC5)cc(C(C)(C)C)c4o3)C(C)(C)C2=O)nc1C(=O)O` [Example I-488] the IC50 (PAR2 (HT-29 cells) [1]; [6]) was 6.5 nM, the IC50 (PAR2 (HT-29 cells) [2]; [6]) was 14 nM and the IC50 ([3]; Homo sapiens) was > 2000 nM. The IC50 ([4]; Homo sapiens) was > 2000 nM.
With `CC(C)(C)c1cc(-c2ccc(Cl)c(F)c2)nc2cc(C(=O)N3CCN(c4cc(C(=O)O)n[nH]4)C(=O)C3(C)C)oc12` [Example I-280, 5-[4-[7-tert-butyl-5-(4-chloro-3-fluoro-phenyl)furo[3,2-b]pyridine-2-carbonyl]-3,3-dimethyl-2-oxo-piperazin-1-yl]-1H-pyrazole-3-carboxylic acid] the IC50 (PAR2 (HT-29 cells) [1]; [5]) was 36 nM, the IC50 (PAR2 (HT-29 cells) [2]; [5]) was 52.5 nM and the IC50 ([3]; Homo sapiens) was > 2000 nM. For the same compound, the IC50 ([4]; Homo sapiens) was > 2000 nM.
For `CC(C)(C)c1cc(-c2ccc(Cl)c(F)c2)nc2cc(C(=O)N3CCN(C(=O)c4cccnc4)CC3(C)C)oc12` [Example I-257], the IC50 (PAR2 (HT-29 cells) [1]; [5]) was 210 nM, the IC50 (PAR2 (HT-29 cells) [2]; [5]) was 180 nM and the IC50 [3] was > 2000 nM. For the same compound, the IC50 [4] was > 2000 nM.
